Counter-ions that a name gives are not always drawn.

Usually IC90 stands for the concentration at which the effect reaches the 90% level.

This assay deals with Acinetobacter baumannii ATCC 17961. Description: Antimicrobial susceptibility testing: 90% growth inhibitory concentration (IC90) determination. It counts as cell-based. Conditions: ATCC17961, Acinetobacter baumannii ATCC 17961, Iso-Sensitest broth, read-out: ATCC 17961 IC90. In outline: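 Broth microdilution in Iso-Sensitest medium, twofold series (e.g. 50 to 0.097 μM final), ~5×10^5 CFU/ml inoculum, 35±2 °C. OD600 read every 20 min over 16 h. IC90 derived from growth inhibition during logarithmic phase.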
As for `Cn1c(-c2cn(CCF)nc2C(F)(F)F)cnc1C(=O)Nc1ccc(C(=O)N2CCN(C(=O)[C@H]3C[C@H](N)C3)CC2)c(Cl)c1` [Example 298, N-[4-[4-(3-aminocyclobutanecarbonyl)piper-azine-1-carbonyl]-3-chlorophenyl]-5-[1-(2-fluoroethyl)-3-(trifluoromethyl)pyrazol-4-yl]-1-methylimidazole-2-carboxamide;trihydrochloride], the IC90 is 365 nM.

Regarding `Cn1c(-c2cn(C3CC3)nc2C(F)(F)F)cnc1C(=O)Nc1ccc(C(=O)N2CCN(C(=O)[C@H]3CCNC3)CC2)c(Cl)c1` [Example 299, (S)-N-(3-chloro-4-(4-(pyrrolidine-3-carbonyl)piperazine-1-carbonyl)phenyl)-5-(1-cyclopropyl-3-(trifluoromethyl)-1H-pyrazol-4-yl)-1-methyl-1H-imidazole-2-carboxamide hydrochloride], the IC90 is 366 nM.

On to `Cn1c(-c2cn(CC(F)F)nc2C(F)(F)F)cnc1C(=O)Nc1ccc(C(=O)N2CCN(C(=O)C3CCNCC3)CC2)c(F)c1` [Example 301, 5-(1-(2,2-difluoroethyl)-3-(trifluoromethyl)-1H-pyrazol-4-yl)-N-(3-fluoro-4-(4-(piperidine-4-carbonyl)piperazine-1-carbonyl)phenyl)-1-methyl-1H-imidazole-2-carboxamide], for which the IC90 worked out at 369 nM.

Regarding `Cn1c(-c2cn(C3CC3)nc2C(F)(F)F)cnc1C(=O)Nc1ccc(C(=O)N2CCN(C(=O)CCCN)CC2)c(Cl)c1` [Example 302, N-(4-(4-(4-aminobutanoyl)piperazine-1-carbonyl)-3-chlorophenyl)-5-(1-cyclopropyl-3-(trifluoromethyl)-1H-pyrazol-4-yl)-1-methyl-1H-imidazole-2-carboxamide hydrochloride], the IC90 is 370 nM.

Take `Cn1c(-c2cn(CC(F)F)nc2C(F)(F)F)cnc1C(=O)Nc1ccc(C(=O)N2CCN(C(=O)NCC3(O)CNC3)CC2)c(Cl)c1` [Example 303, 4-[2-chloro-4-[[5-[1-(2,2-difluoroethyl)-3-(trifluoromethyl)pyrazol-4-yl]-1-methyl-imidazole-2-carbonyl]amino]benzoyl]-N-[(3-hydroxyazetidin-3-yl)methyl]piperazine-1-carboxamide; formic acid]: the IC90 was 371 nM.

Regarding `Cn1c(-c2cn(CC3CCCC3)nc2C(F)(F)F)cnc1C(=O)Nc1ccc(C(=O)N2CCN(C(=O)C3CCNCC3)CC2)c(Cl)c1` [Example 304, N-(3-chloro-4-(4-(piperidine-4-carbonyl)piperazine-1-carbonyl)phenyl)-5-(1-(cyclopentylmethyl)-3-(trifluoromethyl)-1H-pyrazol-4-yl)-1-methyl-1H-imidazole-2-carboxamide hydrochloride], the IC90 was 371 nM.

`Cn1c(-c2cn(CC(F)(F)F)nc2C(F)(F)F)cnc1C(=O)Nc1ccc(C(=O)N2CCN(C(=O)N[C@H]3C[C@@H](N)C3)CC2)c(Cl)c1` [Example 305, rac-N-((1s,3s)-3-aminocyclobutyl)-4-(2-chloro-4-(1-methyl-5-(1-(2,2,2-trifluoroethyl)-3-(trifluoromethyl)-1H-pyrazol-4-yl)-1H-imidazole-2-carboxamido)benzoyl)piperazine-1-carboxamide hydrochloride]: the IC90 is 373 nM.

For `Cn1c(-c2cn(C3CC3)nc2C(F)(F)F)cnc1C(=O)Nc1ccc(C(=O)N[C@H]2[C@@H]3CN(C(=O)C4CCNCC4)C[C@@H]32)c(Cl)c1` [Example 306, N-(3-chloro-4-((exo-3-(piperidine-4-carbonyl)-3-azabicyclo[3.1.0]hexan-6-yl)carbamoyl)phenyl)-5-(1-cyclopropyl-3-(trifluoromethyl)-1H-pyrazol-4-yl)-1-methyl-1H-imidazole-2-carboxamide], the IC90 was 374 nM.

The values above are taken from patent publication US11390604B2 (Hoffmann-La Roche Inc., priority 2019, dated 2022).
